# According to ChEMBL document CHEMBL1201862, “PubChem BioAssay data set” (2004):
#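 Exposure lasted 48 hours, with cells grown in 96-well plates and compounds tested at five concentrations. GI50: concentration for 50% inhibition of growth.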 Active and inactive are the calls of the source. Cut-off read from the data, not from the text of the source: active = GI50 up to about 1.1 µM and inactive = higher.
# What was measured:
# Test in all cases: NCI tumour cell line growth inhibition, 48 h
# [1] = tested on: A498
# [2] = tested on: OVCAR-5
# [3] = tested on: SF-539
# [4] = tested on: NCI-H226
# [5] = tested on: SNB-19
# [6] = tested on: CCRF-CEM
# [7] = tested on: RPMI-8226
# [8] = tested on: MCF7
# [9] = tested on: HL-60
# [10] = tested on: TK-10
# [11] = tested on: SNB-75
# [12] = tested on: UACC-257
# [13] = tested on: NCI-H522
# [14] = tested on: LOX IMVI
# [15] = tested on: EKVX
# [16] = tested on: NCI-H23
# [17] = tested on: CAKI-1
# [18] = tested on: U-251
# [19] = tested on: MOLT-4
# [20] = tested on: UACC-62
# [21] = tested on: OVCAR-8
# [22] = tested on: M14
# [23] = tested on: SR
# [24] = tested on: MDA-N
# [25] = tested on: Malme-3M
# [26] = tested on: Hs-578T
# [27] = tested on: SK-MEL-5
# [28] = tested on: HCT-15
# [29] = tested on: UO-31
# [30] = tested on: OVCAR-3
# [31] = tested on: KM12
# [32] = tested on: HCC 2998
# [33] = tested on: A549
# [34] = tested on: SW-620
# [35] = tested on: SN12C
# [36] = tested on: MDA-MB-435
# [37] = tested on: BT-549
# [38] = tested on: K562
# [39] = tested on: HCT-116
# [40] = tested on: T47D
# [41] = tested on: 786-0
# [42] = tested on: SF-268
# [43] = tested on: HT-29
# [44] = tested on: SK-MEL-28
# [45] = tested on: SK-OV-3
# [46] = tested on: SK-MEL-2
# [47] = tested on: PC-3
# [48] = tested on: NCI/ADR-RES
# [49] = tested on: NCI-H460
# [50] = tested on: RXF 393
# [51] = tested on: COLO 205
# [52] = tested on: DU-145
# [53] = tested on: MDA-MB-231
# [54] = tested on: OVCAR-4
# [55] = tested on: HOP-62
# [56] = tested on: IGROV-1
# [57] = tested on: HOP-92
# [58] = tested on: SF-295
# [59] = tested on: ACHN
compound,measurement,setting,value
CCOC(=O)NNC(=O)NCCNC(=O)NNC(=O)OCC,GI50,[1],> 100 µM (inactive)
same,GI50,[2],69.3 µM (inactive)
same,GI50,[3],> 100 µM (inactive)
same,GI50,[4],98.6 µM (inactive)
same,GI50,[5],> 100 µM (inactive)
same,GI50,[6],> 100 µM (inactive)
same,GI50,[7],> 100 µM (inactive)
same,GI50,[8],> 100 µM (inactive)
same,GI50,[9],> 100 µM (inactive)
same,GI50,[10],> 100 µM (inactive)
same,GI50,[11],> 100 µM (inactive)
same,GI50,[12],> 100 µM (inactive)
same,GI50,[13],> 100 µM (inactive)
same,GI50,[14],> 100 µM (inactive)
same,GI50,[15],> 100 µM (inactive)
same,GI50,[16],> 100 µM (inactive)
same,GI50,[17],> 100 µM (inactive)
same,GI50,[18],> 100 µM (inactive)
same,GI50,[19],> 100 µM (inactive)
same,GI50,[20],> 100 µM (inactive)
same,GI50,[21],> 100 µM (inactive)
same,GI50,[22],> 100 µM (inactive)
same,GI50,[23],> 100 µM (inactive)
same,GI50,[24],> 100 µM (inactive)
same,GI50,[25],> 100 µM (inactive)
same,GI50,[26],> 100 µM (inactive)
same,GI50,[27],> 100 µM (inactive)
same,GI50,[28],> 100 µM
same,GI50,[29],> 100 µM (inactive)
same,GI50,[30],> 100 µM (inactive)
same,GI50,[31],> 100 µM (inactive)
same,GI50,[32],> 100 µM (inactive)
same,GI50,[33],> 100 µM (inactive)
same,GI50,[34],> 100 µM (inactive)
same,GI50,[35],> 100 µM (inactive)
same,GI50,[36],> 100 µM (inactive)
same,GI50,[37],> 100 µM (inactive)
same,GI50,[38],> 100 µM (inactive)
same,GI50,[39],> 100 µM (inactive)
same,GI50,[40],> 100 µM (inactive)
same,GI50,[41],> 100 µM (inactive)
same,GI50,[42],> 100 µM (inactive)
same,GI50,[43],> 100 µM (inactive)
same,GI50,[44],> 100 µM (inactive)
same,GI50,[45],> 100 µM (inactive)
same,GI50,[46],> 100 µM (inactive)
same,GI50,[47],> 100 µM (inactive)
same,GI50,[48],> 100 µM (inactive)
same,GI50,[49],> 100 µM (inactive)
same,GI50,[50],> 100 µM (inactive)
same,GI50,[51],> 100 µM (inactive)
same,GI50,[52],> 100 µM (inactive)
same,GI50,[53],> 100 µM (inactive)
same,GI50,[54],> 100 µM (inactive)
COc1cccc(C2c3cc4c(cc3OC(N3CCCCC3)C2C)OCO4)c1O (stereo not given),GI50,[2],17.7 µM (inactive)
same,GI50,[3],2.22 µM (inactive)
same,GI50,[4],6.55 µM (inactive)
same,GI50,[5],7.93 µM (inactive)
same,GI50,[6],2.4 µM (inactive)
same,GI50,[7],3.21 µM (inactive)
same,GI50,[8],5.6 µM (inactive)
same,GI50,[55],4.11 µM (inactive)
same,GI50,[9],2.54 µM (inactive)
same,GI50,[10],13.8 µM (inactive)
same,GI50,[11],5.41 µM (inactive)
same,GI50,[12],8.04 µM (inactive)
same,GI50,[13],2.74 µM (inactive)
same,GI50,[14],5.21 µM (inactive)
same,GI50,[15],14.7 µM (inactive)
same,GI50,[16],7.31 µM (inactive)
same,GI50,[17],5.48 µM (inactive)
same,GI50,[18],3.82 µM (inactive)
same,GI50,[19],3.96 µM (inactive)
same,GI50,[20],5.92 µM (inactive)
same,GI50,[21],5.9 µM (inactive)
same,GI50,[22],4.2 µM (inactive)
same,GI50,[56],8.81 µM (inactive)
same,GI50,[23],3.01 µM (inactive)
same,GI50,[24],2.3 µM (inactive)
same,GI50,[25],4.53 µM (inactive)
same,GI50,[26],3.63 µM (inactive)
same,GI50,[27],3.62 µM (inactive)
same,GI50,[28],4.21 µM
same,GI50,[29],12.4 µM (inactive)
same,GI50,[30],2.93 µM (inactive)
same,GI50,[31],4.47 µM (inactive)
same,GI50,[32],10.5 µM (inactive)
same,GI50,[33],6.52 µM (inactive)
same,GI50,[34],3.97 µM (inactive)
same,GI50,[35],4.69 µM (inactive)
same,GI50,[36],1.75 µM (inactive)
same,GI50,[37],9.2 µM (inactive)
same,GI50,[38],2.23 µM (inactive)
same,GI50,[39],4.89 µM (inactive)
same,GI50,[40],8.38 µM (inactive)
same,GI50,[57],8.18 µM (inactive)
same,GI50,[41],4.72 µM (inactive)
same,GI50,[42],9.71 µM (inactive)
same,GI50,[58],4.26 µM (inactive)
same,GI50,[43],3.43 µM (inactive)
same,GI50,[44],6.27 µM (inactive)
same,GI50,[59],6.55 µM (inactive)
same,GI50,[45],6.79 µM (inactive)
same,GI50,[46],9.16 µM (inactive)
same,GI50,[47],4.83 µM (inactive)
same,GI50,[48],5.12 µM (inactive)
same,GI50,[49],4.13 µM (inactive)
same,GI50,[50],3.25 µM (inactive)
same,GI50,[51],4.89 µM (inactive)
same,GI50,[52],7.53 µM (inactive)
same,GI50,[53],11.2 µM (inactive)
same,GI50,[54],7.38 µM (inactive)
N=C1/C(=C/c2ccc(F)cc2)C(=O)N=C2SC=NN12,GI50,[2],> 100 µM (inactive)
same,GI50,[3],> 100 µM (inactive)
same,GI50,[4],> 100 µM (inactive)
same,GI50,[5],> 100 µM (inactive)
same,GI50,[6],> 100 µM (inactive)
same,GI50,[7],> 100 µM (inactive)
same,GI50,[8],> 100 µM (inactive)
same,GI50,[55],> 100 µM (inactive)
same,GI50,[9],80.5 µM (inactive)
same,GI50,[10],> 100 µM (inactive)
same,GI50,[11],92.3 µM (inactive)
same,GI50,[12],> 100 µM (inactive)
same,GI50,[13],> 100 µM (inactive)
same,GI50,[14],12.9 µM (inactive)
same,GI50,[15],> 100 µM (inactive)
same,GI50,[16],> 100 µM (inactive)
same,GI50,[17],> 100 µM (inactive)
same,GI50,[18],> 100 µM (inactive)
same,GI50,[19],> 100 µM (inactive)
same,GI50,[20],87.9 µM (inactive)
same,GI50,[21],> 100 µM (inactive)
same,GI50,[22],> 100 µM (inactive)
same,GI50,[56],> 100 µM (inactive)
same,GI50,[23],92.3 µM (inactive)
same,GI50,[24],83.2 µM (inactive)
same,GI50,[25],> 100 µM (inactive)
same,GI50,[26],> 100 µM (inactive)
same,GI50,[27],62.5 µM (inactive)
same,GI50,[28],> 100 µM
same,GI50,[29],> 100 µM (inactive)
same,GI50,[30],> 100 µM (inactive)
same,GI50,[31],> 100 µM (inactive)
same,GI50,[32],> 100 µM (inactive)
same,GI50,[33],> 100 µM (inactive)
same,GI50,[34],> 100 µM (inactive)
same,GI50,[35],> 100 µM (inactive)
same,GI50,[36],83.4 µM (inactive)
same,GI50,[37],94.6 µM (inactive)
same,GI50,[38],> 100 µM (inactive)
same,GI50,[39],> 100 µM (inactive)
same,GI50,[40],> 100 µM (inactive)
same,GI50,[57],69.2 µM (inactive)
same,GI50,[41],> 100 µM (inactive)
same,GI50,[42],> 100 µM (inactive)
same,GI50,[58],> 100 µM (inactive)
same,GI50,[43],> 100 µM (inactive)
same,GI50,[44],> 100 µM (inactive)
same,GI50,[59],> 100 µM (inactive)
same,GI50,[45],> 100 µM (inactive)
same,GI50,[46],> 100 µM (inactive)
same,GI50,[47],> 100 µM (inactive)
same,GI50,[48],> 100 µM (inactive)
same,GI50,[49],> 100 µM (inactive)
same,GI50,[50],31.5 µM (inactive)
same,GI50,[51],> 100 µM (inactive)
same,GI50,[52],> 100 µM (inactive)
same,GI50,[53],> 100 µM (inactive)
same,GI50,[54],> 100 µM (inactive)
Cc1cc2nc3ccccc3n2c2nc(N)ccc12,GI50,[1],46.1 µM (inactive)
same,GI50,[2],61.2 µM (inactive)
same,GI50,[3],26.5 µM (inactive)
same,GI50,[4],27.2 µM (inactive)
same,GI50,[5],20.6 µM (inactive)
same,GI50,[6],38.5 µM (inactive)
same,GI50,[7],14.8 µM (inactive)
same,GI50,[8],44 µM (inactive)
same,GI50,[55],26.3 µM (inactive)
same,GI50,[9],17.6 µM (inactive)
same,GI50,[10],55.8 µM (inactive)
same,GI50,[11],> 100 µM (inactive)
same,GI50,[12],> 100 µM (inactive)
same,GI50,[13],31.6 µM (inactive)
same,GI50,[14],22.1 µM (inactive)
same,GI50,[15],53 µM (inactive)
same,GI50,[16],43 µM (inactive)
same,GI50,[17],20.9 µM (inactive)
same,GI50,[19],17.7 µM (inactive)
same,GI50,[20],39.3 µM (inactive)
same,GI50,[21],15.8 µM (inactive)
same,GI50,[22],48 µM (inactive)
same,GI50,[56],28.1 µM (inactive)
same,GI50,[23],13.5 µM (inactive)
same,GI50,[24],49.4 µM (inactive)
same,GI50,[26],35.3 µM (inactive)
same,GI50,[27],13.6 µM (inactive)
same,GI50,[28],12 µM
same,GI50,[29],16.3 µM (inactive)
same,GI50,[30],63.7 µM (inactive)
same,GI50,[31],33 µM (inactive)
same,GI50,[32],39.6 µM (inactive)
same,GI50,[33],30.9 µM (inactive)
same,GI50,[34],25.4 µM (inactive)
same,GI50,[35],51.2 µM (inactive)
same,GI50,[36],49.5 µM (inactive)
same,GI50,[37],68.9 µM (inactive)
same,GI50,[38],54.1 µM (inactive)
same,GI50,[39],14.8 µM (inactive)
same,GI50,[40],38.2 µM (inactive)
same,GI50,[57],16.6 µM (inactive)
same,GI50,[41],16.7 µM (inactive)
same,GI50,[42],37.1 µM (inactive)
same,GI50,[58],23.3 µM (inactive)
same,GI50,[43],34.3 µM (inactive)
same,GI50,[59],15.4 µM (inactive)
same,GI50,[46],65.6 µM (inactive)
same,GI50,[47],40.4 µM (inactive)
same,GI50,[48],23.2 µM (inactive)
same,GI50,[49],4.02 µM (inactive)
same,GI50,[50],41.2 µM (inactive)
same,GI50,[51],32.9 µM (inactive)
same,GI50,[52],52.6 µM (inactive)
same,GI50,[53],58.2 µM (inactive)
same,GI50,[54],44.9 µM (inactive)
